The test system of data set [1] is SH-SY5Y cells. Description: Cytotoxicity of peptides (MTT cell viability). The note with it: 40 ug/mL (w/v), 48 hours. The data set is classed as cell-based, human. Here is the method: (§1) SH-SY5Y cells, a human neuronal cell line, were obtained from the Korean Cell Line Bank (Cat No. 22266) and were cultured in Roswell Park Memorial Institute (RPMI) 1640 Medium (RPMI 1640, Cytiba) medium containing 10% fetal bovine serum (FBS, Cytiba) and 100 IU/ml penicillin and 100 μg/ml streptomycin in a 5% CO2, 37° C. incubator.
(§2) The human neuronal cell line SH-SY5Y was cultured and various concentrations of porcine brain enzyme hydrolysate-derived peptides were added to determine cell viability by MTT (methylthiazol tetrazolium bromide, Sigma Aldrich). Cells were seeded in appropriate amounts (1×10^5/well) in each well of a 24 well plate (BD, Falcon), treated with each concentration, and cell viability was determined after 48 hours of incubation in a 37° C. incubator. After 4 hours of reaction with MTT solution, the insoluble formazan crystals were dissolved by adding 400 μl of DMSO and the absorbance was measured with an ELISA reader (TECAN, Infinite M200 pro) at a wavelength of 570 nm.

Data set [2] in a line: Cytotoxicity of peptides (MTT cell viability). The class given is cell-based, human. The note with it: human, SH-SY5Y cells, all tested concentrations (0.4˜40 ug/ml). Here is the method:
as §1, §2

Where a SMILES comes first, the peptide text is derived from it.

This note sets out measurements from patent US20250082687A1, “COMPOSITION FOR IMPROVING MEMORY OR COGNITIVE ABILITY, OR PREVENTING OR TREATING BRAIN NEUROLOGICAL DISEASE, COMPRISING PORCINE BRAIN ENZYME HYDROLYSATE” (UNIMED PHARMACEUTICALS INC., priority 2022, published 2025).

`CC[C@H](C)[C@H](NC(=O)[C@H](CO)NC(=O)[C@@H]1CCCN1)C(=O)N[C@@H](CO)C(=O)O` [brPEP-1, PSIS] (H-PSIS-OH): the cell viability in data set [1] is reported as 93.05%±2.23%. The viability at 48 h in data set [2] was above 90%.
The like results for `C[C@H](NC(=O)[C@@H]1CCCN1C(=O)CN)C(=O)NCC(=O)N1CCC[C@H]1C(=O)N[C@@H](CCC(N)=O)C(=O)NCC(=O)N1CCC[C@H]1C(=O)N[C@@H](CCCNC(=N)N)C(=O)O` [brPEP-2, GPAGPQGPR] were, in that order, 108.47%±5.20% and above 90%.
